Experimental data: article PMC10610214 (Pharmaceuticals, 2023)
Values joined by “and” are separate entries in the source; they are usually repeats but may differ in a detail not shown here. Equal values may be shown once. “Also recorded” adds a separate entry of the source. Read-outs that look alike come from different tables or passages of the source.

How the values were obtained:
[1] = target: T1, AChE (from electric eel) (Electrophorus electricus, UniProt O42275); experiment: biochemical
T1 construct: AChE (from electric eel); purchased Sigma Chemical Company (St. Louis, MO, USA)
T1 sequence (O42275 24-633): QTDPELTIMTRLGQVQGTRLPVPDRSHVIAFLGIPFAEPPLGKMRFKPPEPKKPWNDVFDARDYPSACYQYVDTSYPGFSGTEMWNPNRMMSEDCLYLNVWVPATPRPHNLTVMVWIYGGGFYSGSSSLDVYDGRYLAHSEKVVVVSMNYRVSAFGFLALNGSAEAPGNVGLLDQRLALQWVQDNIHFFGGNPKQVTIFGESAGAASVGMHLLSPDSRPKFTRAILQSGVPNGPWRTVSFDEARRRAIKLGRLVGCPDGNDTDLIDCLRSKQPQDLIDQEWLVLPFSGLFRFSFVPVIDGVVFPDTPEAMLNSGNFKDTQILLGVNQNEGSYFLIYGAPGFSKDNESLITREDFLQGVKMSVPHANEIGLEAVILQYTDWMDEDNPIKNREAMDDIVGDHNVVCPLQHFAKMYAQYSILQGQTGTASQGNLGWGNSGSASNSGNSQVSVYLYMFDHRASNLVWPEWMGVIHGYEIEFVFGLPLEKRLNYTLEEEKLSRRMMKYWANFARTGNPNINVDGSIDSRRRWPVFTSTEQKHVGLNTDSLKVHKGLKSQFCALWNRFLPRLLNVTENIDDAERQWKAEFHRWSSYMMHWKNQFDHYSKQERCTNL
Description: (§1) The ChE inhibitory activity of the test compounds was determined using the modified Ellman’s method. The compounds were dissolved in DMSO (10 mmol/L) and then diluted with PB (phosphate buffer) solution to attain a range of final concentrations. […] Briefly, 100 μL of different concentrations of the test or standard compounds and 100 μL of AChE/BuChE (0.5 U/mL) were added into 48-well plates and then co-incubated at 37 °C for 30 min. […] All concentrations mentioned are final.

[2] = target: T2, BuChE (from equine serum) (Equus caballus, UniProt P81908); experiment: biochemical; details: mean ± SD of three experiments, read-out: BuChE Inhibition (IC50)
T2 construct: BuChE (from equine serum); purchased Sigma Chemical Company (St. Louis, MO, USA); host or cells: equine serum
T2 sequence (P81908 whole entry): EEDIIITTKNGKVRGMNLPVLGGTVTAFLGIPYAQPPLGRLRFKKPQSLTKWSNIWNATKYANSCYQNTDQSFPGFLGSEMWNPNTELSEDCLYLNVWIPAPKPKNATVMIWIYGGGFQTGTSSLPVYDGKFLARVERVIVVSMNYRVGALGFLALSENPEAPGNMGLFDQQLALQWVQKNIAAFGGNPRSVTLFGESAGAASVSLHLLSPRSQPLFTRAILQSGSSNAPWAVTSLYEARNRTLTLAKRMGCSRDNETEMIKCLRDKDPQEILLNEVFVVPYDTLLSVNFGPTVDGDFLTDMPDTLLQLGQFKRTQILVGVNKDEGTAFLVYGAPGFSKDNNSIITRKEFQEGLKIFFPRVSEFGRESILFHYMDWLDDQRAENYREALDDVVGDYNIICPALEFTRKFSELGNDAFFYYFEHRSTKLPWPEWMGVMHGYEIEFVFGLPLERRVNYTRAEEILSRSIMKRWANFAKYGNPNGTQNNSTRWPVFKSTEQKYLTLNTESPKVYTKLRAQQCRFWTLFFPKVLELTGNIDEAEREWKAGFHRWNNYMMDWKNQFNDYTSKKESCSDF
Description: as §1

[3] = target: T3, AChE (Electrophorus electricus, UniProt O42275); assay type: biochemical; details: for AChE activity after dilution (reversibility): control 100
T3 construct: AChE (from electric eel); purchased Sigma Chemical Company (St. Louis, MO, USA)
T3 sequence (O42275 24-633): as the sequence (O42275 24-633) above
Description: (§2) The activities of the diluted residual enzymes were measured by Ellman’s modified method.
(§3) Reversibility studies were performed using a modified Ellman’s dilution method to measure the activity of the diluted residual enzyme. The AChE/BuChE (0.5 U/mL), ATCI/BTCI (0.01 M) and DTNB (0.01 M) were diluted with phosphate buffer pH = 7.4. […] At the end of incubation, 20 μL of DTNB solution was added to them. […] All the measured results are expressed as the mean ± SEM of the three independent experiments.

[4] = target: T4, BuChE (Equus caballus, UniProt P81908); experiment: Reversibility of BuChE inhibition, dilution method; assay type: biochemical; details: for BuChE activity after dilution (reversibility): control 100
T4 construct: BuChE (from equine serum); purchased Sigma Chemical Company (St. Louis, MO, USA); host or cells: equine serum
T4 sequence (P81908 whole entry): as the sequence (P81908 whole entry) above
Description: as §2, §3

[5] = system: PC12 cells; experiment: Cytotoxicity in PC12 cells (MTT); assay type: cell-based
Description: The cytotoxicity and neuroprotective effects of the compounds on PC12 cells were evaluated by MTT assay. PC12 cells were seeded into a 96-well plate at a density of 5.0 × 10^3 cells per well. After the cells were incubated overnight, the old medium was discarded. The cells were incubated for another 24 h with fresh medium containing compounds at a concentration of 30 or 50 μM. A total of 20 μL of MTT solution (5 mg/mL, Sigma-Aldrich, Shanghai, China) was then added per well, and the cells were incubated for an additional 4 h. Afterwards, the supernatant was removed and 150 μL of DMSO was added to solubilize formazan crystals. The 96-well plate was placed on the shaker for 10–15 min, and then the absorbance at 492 nm was measured by a microplate reader.

[6] = system: NO in BV2 cells; experiment: NO production in LPS-stimulated BV2 cells (Griess); assay type: cell-based; details: Mus musculus, BV-2, 24 h, read-out: NO inhibition IC50
Description: (§4) The cytotoxicity of compounds on BV2 cells were evaluated by MTT assay and similar to those described in Section 2.5. The NO concentrations in medium were determined using Griess Reagent assay (Beyotime) in accordance with a previously reported method. Nitrite is reduced to nitrogen oxide using Griess Reagent I. Nitrogen oxide then reacts with Griess Reagent II forming a stable product that can be detected by its absorbance at […]. The two-step assay is simple, fast, and can detect nitrite levels as low as 1 nmol/well. BV2 cells were seeded into a 48-well plate at a density of 6.0 × 10^4 cells per well. After the cells were incubated overnight, the old medium was discarded. Then, the cells were pretreated with various concentrations (10, 5, 1, 0.5, and 0.1 μM) of compounds for 1 h and then co-incubated with LPS (1 μg/mL, 30 μL/well) for 24 h. After 24 h, the cell supernatant (50 μL/well) was placed into a new 96-well plate for experiment. […] The absorbance at […] was measured by a microplate reader.

[7] = system: IL-1β in BV2 cells; experiment: IL-1β secretion in LPS-stimulated BV2 cells (ELISA); assay type: cell-based; details: Mus musculus, BV-2, 24 h, read-out: IL-1β inhibition IC50
Description: as §4
The contents of TNF-α and IL-β in the cell supernatant were measured via ELISA (Jyimei, Wuhan, China) following the manufacturer’s instructions.

[8] = Metal chelation by UV–Vis spectroscopy; assay type: physicochemical; details: 20 μM 4h, 1 equivalent CuCl2, methanol/water 1/1
Description: In the wavelength range of 200–600 nm, the metal chelating ability of compound 4h was analyzed by UV–Vis spectroscopy. Specifically, compound 4h (dissolved in DMSO) solutions were prepared with a mixture of methanol and deionized water (1/1). Stock solutions of cation salts (10 mM) were prepared with deionized water and then in the presence or absence of ZnCl2, CuCl2, AlCl3, FeSO4, MgCl2, and CaCl2 (20 μM, final concentration), respectively, and incubated with 4h (20 μM, final concentration) for 1 h at room temperature. The final volume of the reaction mixture was 2 mL. The UV absorption of the test substance was recorded in a 1 cm quartz cell.

[9] = system: scopolamine-induced AD mice; experiment: Morris water maze, scopolamine-induced AD mouse model; assay type: in vivo
Description: Mice were reared in a temperature and humidity controlled environment with free access to food and water, with self-adaptive rearing for 4 days.
According to behavioral experiments, 30 mice were randomly divided into 5 groups. […] On day 7, scopolamine hydrobromide was injected intraperitoneally into the of the mouse to establish an AD model. The control group were only injected normal saline. After 30 min, the bodyweight changes in mice during the administration period were recorded.
The MWM is a white circular pool (150 cm in diameter, 60 cm in height; no features on the inner surface) with a water height of 46 cm and a white platform (10 cm in diameter) submerged 1 cm below the water surface. White titanium dioxide (0.25 g/L) was added to make the water turbid to make the platform invisible, and the platform was fixed in the third quadrant of the circular pool (four quadrants in total). Training was performed by allowing mice to stay for 15 s after reaching the platform. If the mice successfully found the platform within 60 s, they were allowed to stay on the platform for 15 s; otherwise, they were brought to the platform and stayed for 15 s. The training was performed four times a day for a total of 4 days of training. Except for the control group, animals were intraperitoneally injected with scopolamine 90 min before the test to induce cognitive deficits mimicking. On day 5, a probe trial was conducted with the platform removed. Mice were placed in the quadrant opposite the target for 60 s, and their swim path was recorded to evaluate memory retention. Performance measures included latency to reach the platform location and time spent in each quadrant.

[10] = final inhibitor 0.1 × IC50 after 100-fold dilution
[11] = final inhibitor 1 × IC50 after 100-fold dilution
[12] = Morris water maze probe trial, day 5

SMILES: O=C1c2cc(NS(=O)(=O)c3ccccc3F)ccc2-n2c1nc1ccccc1c2=O [4h]
- IC50 ([1]; AChE from electric eel, mean ± SD of three experiments, read-out: AChE Inhibition (IC50)): 130 ± 40 nM
- Selective Index, IC50 (BChE)/IC50 (AChE) ([1]; AChE selectivity index): 47
- IC50 [2]: 6.11 ± 0.15 µM
- Reversibility of AChE inhibition ([3]; dilution method): reversible inhibitor
- AChE activity after dilution (reversibility) [3, 10]: 87.2 ± 0.92
- AChE activity after dilution (reversibility) [3, 11]: 72.3 ± 1.03
- Reversibility of BuChE inhibition ([4]; dilution method): reversible inhibitor
- BuChE activity after dilution (reversibility) [4, 10]: 92.2 ± 0.52
- BuChE activity after dilution (reversibility) [4, 11]: 84.9 ± 1.2
- Cell Viability (% of Control) ([5]; compound 30 μM, 30 µM): 99.62 ± 0.94 % of Control and 99.6 ± 0.9 % of Control
- Cell Viability (% of Control) ([5]; compound 50 μM, 50 µM): 99.21 ± 1.57 % of Control and 99.2 ± 1.5 % of Control
- IC50 [6]: 620 ± 70 nM
- IC50 [7]: 1780 ± 210 nM
- Metal chelating ability (UV–Vis) [8]: maximum absorption intensity at 261 nm was markedly reduced; also recorded: can chelate Cu^2+
- Bodyweight of mice ([9]; 10 and 30 mg/kg, gavage, 7 days): did not cause any abnormal fluctuations in the bodyweight of mice
- Dwell time in the target quadrant [9, 12]: markedly higher in the 30 mg/kg dose group than those in the model and 10 mg/kg dose groups
- Number of virtual platform crossings [9, 12]: markedly higher in the 30 mg/kg dose group than those in the model and 10 mg/kg dose groups
- Escape latency ([9]; Morris water maze, 10 and 30 mg/kg gavage, training days): decreased in a dose-dependent manner
